# Laboratory results reported in patent publication US20260223850A1, “SUBSTITUTED PYRROLIDONE COMPOUND, PREPARATION METHOD THEREFOR, COMPOSITION AND APPLICATION THEREOF” (QINGDAO KINGAGROOT CHEMICAL COMPOUND CO., LTD., priority 2023, published 2026).
# Tests used:
# Mythimna separata = assay: Insecticidal activity assay, spraying method; type: in vivo; conditions: 3rd instar, spray, 48 h after drug application
# Experimental: (§1) Spraying method: the technical material was weighed and dissolved with acetone, and the drug liquid was diluted with distilled water to different concentrations. The 2nd instar Spodoptera frugiperda test insects or the 3rd instar Mythimna separata test insects reared indoors with consistent physiological conditions were selected. Ten test insects were picked into each petri dish. Two 2 cm-long corn leaves were placed in the petri dish and sprayed using a spray tower. Each dosage was repeated 3 times, with acetone of the corresponding concentration as a control. After drug application, the insects were transferred to and reared in a condition where the temperature was 25° C. and the humidity was 60%. The results were investigated 48 h after drug application and the death number per treatment was collected, respectively. The mortality was calculated in accordance with the following equation: Mortality (%)=(Number of dead insects/Number of test insects)×100.
# Spodoptera frugiperda = assay: Insecticidal activity assay, spraying method; type: in vivo; conditions: 2nd instar, spray, 48 h after drug application; for Spodoptera frugiperda/% (mortality): 500 ppm
# Experimental: as §1
# weeds = assay: Activity assay of compositions, post-emergence spray treatment of stems and leaves (F); type: in vivo; conditions: F
# Experimental: The required active ingredient B was purchased from a reagent company or a technical material manufacturer or synthesized by a conventional method. The technical materials were all dissolved with acetone solvents and diluted with aqueous solution of 0.1% Tween® 80 emulsifier, which should be used immediately after dilution.
# Weeds were cultivated by the pot culture method. […] Weed seeds with plump and uniform grains were selected, soaked in lukewarm water at 25° C. for 6 hours, and accelerated to germinate in a 28° C. biochemical incubator (in darkness). The weed seeds that had just germinated were evenly placed on the surface of the soil and then covered with 0.5-1 cm soil according to the sizes of seeds.
# The weeds were cultured in a controllable sunlight greenhouse at 20-30° C., in natural light and with relative humidity of 57%-72%.
# Each treatment was repeated 4 times. Three pots with 20 weed seeds sowed per pot were treated each time.
# The drug was applied once in total in the experiment. When at 1.5-2 leaf stage, the weeds were thinned out to maintain 10 strains per pot. Thirty strains were kept in each treatment and then continued to be cultured until the 3-4 leaf stage for further treatment.
# The well-cultured test materials were evenly placed on a 0.5 m^2 platform and foliage-sprayed by the 3WP-2000-type walking spray tower at a dosage of […] and a spray pressure of 0.3 MPa. After all the drug solution was sprayed, the air valve was closed. And 30 seconds later, the door of the spray tower was opened, and the nutritional bowl was taken out. Next, the air valve was opened, and the spray tube was cleaned by spraying 50 mL of water. The test materials were transferred to and routinely cultured in a greenhouse after the treatment.
# A method for investigating absolute numbers was employed. The whole seedlings of the survival weeds were cut along the soil surface with a blade, and the fresh weight of the weeds was weighed by an analytical balance. For dead weeds, the fresh weight thereof was considered zero.
# The investigation was performed 21 days after the treatment for once in total.
# The theoretical fresh weight inhibition rate of a mixed combination of each treatment was calculated by the Gowing method (E0═X+Y−X*Y/100), then compared with the measured inhibition rate (E) to evaluate the type of the combined action of the combination of the two on weeds. The combined action was a synergistic effect when E−E0 >10%; an antagonistic effect when E−E0<−10%; an additional effect when −10%≤E−E0≤10%. An optimal ratio was determined according to factors such as actual control effects, characteristics of herbicides, balance of the formulation, etc. In the formula, X represents the fresh weight inhibition rate of the active ingredient A in a dosage of P; Y represents the fresh weight inhibition rate of the active ingredient B in a dosage of Q. The statistical results are shown in Table 6.
# Apple ring rot = assay: Fungicidal activity assay, petri dish method; type: cell-based; conditions: 400 ppm, 25° C., after 4 days
# Experimental: (§2) Petri dish method: The drug agent was dissolved with acetone, diluted with sterile water, and set to different levels of mass concentrations according to its activity. Under aseptic operation conditions, the pre-melted sterilized medium was quantitatively added into sterilized flasks according to the test treatment. The drug solutions were quantitatively aspirated in order from low to high concentrations, added into the above-mentioned flasks, and shaken well, respectively. Next, equal amounts of the solution were poured into 3 petri dishes with a diameter of 6 cm to prepare drug-containing plates with corresponding concentrations. In the test, a treatment without drugs was set up as the blank control and each treatment was repeated 3 times. A fungus cake was cut out from the edge of the colony of the cultured pathogens using a sterile hole puncher with a diameter of 3 mm under sterile conditions. The fungus cake was inoculated into the center of a drug-containing plate using an inoculator, with the mycelia facing up, covered with a plate cover, and cultured in an incubator at 25° C. The growth of pathogen mycelia was investigated according to the fungal growth in the blank control petri dishes after 4 days. The diameters of the colonies were measured with a caliper in millimeters (mm). Each colony was vertically measured for diameters once each by the cross method and then averaged. Based on the investigation results, the mycelium growth inhibition rate of each treatment concentration on the test target fungi was calculated in accordance with Equation (1) and (2). The unit was percentage (%).
# (§3) [formula] • wherein: D—Increase of colony diameter; D1—Diameter of colony; D2—Diameter of fungus cake.
# (§4) [formula] • wherein: I—Mycelium growth inhibition rate; D0—Increase of colony diameter of blank control; Dt—Increase of colony diameter of drug treatment.
# Rice sheath blight = assay: Fungicidal activity assay, petri dish method; type: cell-based; conditions: 400 ppm, 25° C., after 4 days
# Experimental: as §2, §3, §4
# Echinochloa crusgalli = assay: Seedling stage sealing experiment for water-seeding; type: in vivo; conditions: 120 g a.i./ha, 15 days, fresh weight control rate
# Echinochloa phyllopogon = assay: as above; type: in vivo; conditions: 120 g a.i./ha, 15 days, fresh weight control rate
# In short: (§5)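 Grades run from 0 (no effect) to 9 (completely dead), each band set by percent fresh-weight growth control. Application by spray tower at 120, 60, 30 and 15 g a.i./ha in triplicate; evaluated after 15 days of greenhouse culture.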
# Huaidao (rice cultivar) = assay: Seedling stage sealing experiment for water-seeding (crop safety); type: in vivo; conditions: 120 g a.i./ha, 15 days, fresh weight control rate; for Huaidao (rice cultivar) plant damage level: seedling stage sealing
# In short: as §5
# Tomato gray mold = assay: Fungicidal activity assay, petri dish method; type: cell-based; conditions: 25° C., after 4 days
# Experimental: as §2, §3, §4
# Leptochloa chinensis = assay: Seedling stage sealing experiment for water-seeding; type: in vivo; conditions: 120 g a.i./ha, 15 days, fresh weight control rate
# In short: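 Seeds sown in soil-filled bowls kept moist in water-filled boxes; compound in acetone diluted with water and spray-applied at 120, 60, 30 and 15 g a.i./ha, triplicate. After 15 days in greenhouse, fresh-weight growth control scored on a 0–9 scale (9 = dead, 0 = no effect), averaged.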
# Digitaria sanguinalis = assay: as above; type: in vivo; conditions: 120 g a.i./ha, seedling stage sealing, 15 days, fresh weight control rate
# In short: as §5
# [1] = spray, seedling stage sealing for water-seeding
# [2] = Alisma plantago-aquatica, B 30 g a.i./ha
# [3] = Alisma plantago-aquatica, B 60 g a.i./ha
smiles,measurement,setting,value
Cc1cc([C@H]2CN(C)C(=O)[C@@H]2C(=O)Nc2cnn(C)c2Cl)nn1C(F)F [340′],mortality at 500 ppm,"Mythimna separata; Mythimna separata, 500 ppm",100%
same,mortality at 500 ppm,Spodoptera frugiperda; Spodoptera frugiperda,87%
COCCOC(=O)c1nc(-c2ccc(C(F)(F)F)c(OC)c2F)nc(N)c1OC,Control effect of B applied alone in a corresponding dose (%),"weeds; Alisma plantago-aquatica, B 3.75 g a.i./ha",43.5%
same,Control effect of B applied alone in a corresponding dose (%),"weeds; Alisma plantago-aquatica, B 7.5 g a.i./ha",57.2%
Cc1cc(C)cc([C@H]2CN(C)C(=O)[C@@H]2C(=O)Nc2cnn(C)c2-c2ccc(Cl)cc2)c1 [281′],Mythimna separata/% (mortality),Mythimna separata; 500 ppm,60%
Cc1cc(Cl)cc([C@H]2CN(C)C(=O)[C@@H]2C(=O)Nc2cnn(C)c2Cl)c1 [504′],Apple ring rot/% (mycelium growth inhibition rate),Apple ring rot,80%
same,Rice sheath blight/% (mycelium growth inhibition rate),Rice sheath blight,83%
same,Echinochloa crusgalli activity level (growth control rate),Echinochloa crusgalli; [1],9
same,Echinochloa phyllopogon activity level (growth control rate),Echinochloa phyllopogon; [1],9
same,Huaidao (rice cultivar) plant damage level (growth control rate),Huaidao (rice cultivar); [1],0
Cc1cc(C)cc([C@H]2CN(C)C(=O)[C@@H]2C(=O)Nc2cnn(C)c2C=O)c1 [500′],Mythimna separata/% (mortality),Mythimna separata; 500 ppm,70%
same,Spodoptera frugiperda/% (mortality),Spodoptera frugiperda,60%
"CC(C)N1C(=O)c2ccccc2NS1(=O)=O [Bentazone, bentazone, reference compound]",Control effect of B applied alone in a corresponding dose (%),"weeds; Paspalum distichum, B 375 g a.i./ha",29.2%
same,Control effect of B applied alone in a corresponding dose (%),"weeds; Paspalum distichum, B 750 g a.i./ha",36.7%
Cc1cc(C)cc([C@H]2CN(C)C(=O)[C@@H]2C(=O)Nc2cnn(-c3ccccc3)c2Cl)c1 [421′],Echinochloa crusgalli activity level (growth control rate),Echinochloa crusgalli; seedling stage sealing,9
same,Huaidao (rice cultivar) plant damage level,Huaidao (rice cultivar),0
same,Mythimna separata/% (mortality),Mythimna separata; 500 ppm,75%
same,Spodoptera frugiperda/% (mortality),Spodoptera frugiperda,65%
CCn1ncc(NC(=O)[C@H]2C(=O)N(C)C[C@@H]2c2cc(C)cc(C)c2)c1Cl [418′],Tomato gray mold/% (mycelium growth inhibition rate),Tomato gray mold; 500 ppm,96%
same,Echinochloa crusgalli activity level (growth control rate),Echinochloa crusgalli; seedling stage sealing,9
same,Echinochloa phyllopogon activity level (growth control rate),Echinochloa phyllopogon; seedling stage sealing,9
Cc1cc(C)cc([C@H]2CN(C)C(=O)[C@@H]2C(=O)Nc2cnn(C)c2C2CC2)c1 [277′],Leptochloa chinensis activity level (growth control rate),Leptochloa chinensis,9
same,Echinochloa crusgalli activity level (growth control rate),Echinochloa crusgalli; seedling stage sealing,9
same,Digitaria sanguinalis activity level (growth control rate),Digitaria sanguinalis,6 (Level 6: growth control rate greater than or equal to 70% and less than 80%)
same,Mythimna separata/% (mortality),Mythimna separata; 100 ppm,95%
CN1C[C@H](c2cc3ccccc3o2)[C@@H](C(=O)Nc2cnn(C)c2Cl)C1=O [356′],Apple ring rot/% (mycelium growth inhibition rate),Apple ring rot,83%
same,Tomato gray mold/% (mycelium growth inhibition rate),Tomato gray mold; 400 ppm,57%
same,Echinochloa crusgalli activity level (growth control rate),Echinochloa crusgalli; seedling stage sealing,5 (Level 5: growth control rate greater than or equal to 50% and less than 70%)
C#CCn1ncc(NC(=O)[C@H]2C(=O)N(C)C[C@@H]2c2cc(C)cc(C)c2)c1Cl [420′],Echinochloa crusgalli activity level (growth control rate),Echinochloa crusgalli; seedling stage sealing,9
same,Echinochloa phyllopogon activity level (growth control rate),Echinochloa phyllopogon; seedling stage sealing,9
same,Huaidao (rice cultivar) plant damage level,Huaidao (rice cultivar),0
same,Mythimna separata/% (mortality),Mythimna separata; 500 ppm,90%
same,Spodoptera frugiperda/% (mortality),Spodoptera frugiperda,75%
"CCC(=O)Nc1ccc(Cl)c(Cl)c1 [Propanil, propanil, reference compound]",Control effect of B applied alone in a corresponding dose (%),"weeds; Paspalum distichum, B 300 g a.i./ha",48.3%
same,Control effect of B applied alone in a corresponding dose (%),"weeds; Paspalum distichum, B 600 g a.i./ha",56.1%
Cc1ccc([C@H]2CN(C)C(=O)[C@@H]2C(=O)Nc2cnn(C)c2Cl)o1 [522′],Mythimna separata/% (mortality),Mythimna separata; 500 ppm,70%
same,Spodoptera frugiperda/% (mortality),Spodoptera frugiperda,60%
Cc1cc(C)cc([C@H]2CN(C)C(=O)[C@@H]2C(=O)Nc2cnn(C(=O)OC(C)(C)C)c2Cl)c1 [491′],Mythimna separata/% (mortality),Mythimna separata; 500 ppm,70%
same,Spodoptera frugiperda/% (mortality),Spodoptera frugiperda,60%
"Nc1c(Cl)c(F)nc(OCC(=O)O)c1Cl [Fluroxypyr, fluroxypyr, reference compound]",Control effect of B applied alone in a corresponding dose (%),weeds; [2],52.5%
same,Control effect of B applied alone in a corresponding dose (%),weeds; [3],65.8%
C=CCn1ncc(NC(=O)[C@H]2C(=O)N(C)C[C@@H]2c2cc(C)cc(C)c2)c1Cl [270′],Tomato gray mold/% (mycelium growth inhibition rate),Tomato gray mold; 400 ppm,51%
same,Rice sheath blight/% (mycelium growth inhibition rate),Rice sheath blight,61%
same,Echinochloa phyllopogon activity level (growth control rate),Echinochloa phyllopogon; seedling stage sealing,6 (Level 6: growth control rate greater than or equal to 70% and less than 80%)
same,Huaidao (rice cultivar) plant damage level,Huaidao (rice cultivar),0
same,Mythimna separata/% (mortality),Mythimna separata; 500 ppm,75%
same,Spodoptera frugiperda/% (mortality),Spodoptera frugiperda,55%
C[C@@H](Oc1nc(F)c(Cl)c(N)c1Cl)C(=O)OCC1CCCO1 (stereo partly shown),Control effect of B applied alone in a corresponding dose (%),weeds; [2],38.7%
same,Control effect of B applied alone in a corresponding dose (%),weeds; [3],45.6%
